Results: US9365851B2, “Spalt-like transcription factor 4 (SALL4) and uses thereof” (National University of Singapore, priority 2011, dated 2016)

Tests used:
PTEN/AKT pathway = PTEN/AKT pathway expression in SNU-398 cells after treatment (Western blot, mRNA); type: cell-based, human; conditions: SNU-398
From the text: The induction of Pten expression was not affected when wt peptide was administrated together with a Pten inhibitor. AKT, a molecule with levels of phosphorylation controlled by the expression of Pten was affected by the wt peptide addition accordingly. […] The effect of wt peptide on pAKT was abrogated by the Pten inhibitor. […] In contrast, the protein expression level of endogenous Pten was very high in the none-SALL4 expressing SNU387 cells.
Then tested was whether this peptide could reverse the repressive effect of SALL4 on its target genes. The focus was onPTEN, since it is implicated in SALL4-mediated leukemogenesis (Yang et al., Blood, 112:805-813 (2008); Lu et al., PLoS One, 4:e5577 (2009)). In addition, it was previously reported that SALL4 could specifically bind to the PTEN promoter region in a chromatin immunoprecipitation (ChIP) assay (Lu et al., PLoS One, 4:e5577 (2009)). When SALL4 was overexpressed in 293T cells, an enrichment of SALL4 as well as decreased H3 acetylation at this binding site was observed, which correlated with decreased PTEN RNA expression (Lu et al., PLoS One, 4:e5577 (2009))). Therefore, it was hypothesized that SALL4 could recruit the HDAC/NuRD complex to repress PTEN, and that the wild type peptide would compete with endogenous SALL4 in recruiting the HDAC/NuRD complex to the PTEN promoter, and release the repression effect of SALL4 on PTEN. Furthermore, this model would predict that wild type peptide treatment of SALL4-expressing cells would lead to increased epigenetic markers of gene activation, such as H3 acetylation, at the PTEN promoter binding site, as well as an increase in PTEN expression. To test this possibility, SNU-398 cells were treated with scrambled or wild type peptide and subsequently evaluated for PTEN expression and H3 acetylation at the SALL4 binding site at the PTEN promoter region. […] Therefore, the results herein are compatible with the model that SALL4 recruits HDACs to repress PTEN expression, and blocking the SALL4-HDAC interaction with the wild type peptide results in increased expression of PTEN.
To confirm the involvement of PTEN tumor suppressor in SALL4 peptide-induced reduction of number of viable HCC cells, PTEN expression was analyzed by western blot upon drug treatment. […] Whether the increase in PTEN expression upon SALL4 peptide treatment has an effect in PI3K signalling by dephosphorylating AKT was examined.
To confirm the involvement of the PTEN tumor suppressor in the SALL4 peptide-induced reduction of HCC cell viability, PTEN expression was analyzed by western blot upon drug treatment. […] If the increase in PTEN expression has an effect in PI3K signaling was next examined. PTEN functions as a phosphatase to dephosphorylate AKT.

THP1 cells = experiment: MTS cell viability assay; type: cell-based; conditions: THP1, wt peptide + PTEN inhibitor
Protocol: (§1) Multiple leukemic and solid tumor cancer cell lines with high or low/no SALL4 expression (FIG. 10A) were chosen to test the biological effect(s) of the wild type peptide. Wild type or scrambled peptide was delivered into tumor cells at various concentrations, and their effects on cells were evaluated 72 hours post-treatment by the MTS cell viability assay. […] The effect of wild type peptide is SALL4-specific, as it had no effect on KBM5, an AML cell line with undetectable endogenous SALL4 expression. We were surprised to see that the wild type peptide had no effect on a high SALL4-expressing endometrioid cancer cell line, AN3CA. This prompted checking whether PTEN, a gene repressed by SALL4 through its interaction with NuRD 27, was present in this cell line. According to the model herein, the function of wild type peptide requires both the expression of SALL4 and intact SALL4 downstream target genes, such as PTEN. In tumor cells with PTEN deletion, even though wild type peptide could compete with endogenous SALL4 in interacting with the HDAC complex, an anti-proliferative effect might not be observed. Therefore, expression of PTEN was evaluated in AN3CA cells along with other cell lines. While PTEN protein was present in all the other cell lines, it was absent in AN3CA cells (FIG. 10C), with reported deletion mutation of the gene in this cell line 40,41. […] Furthermore, the anti-proliferative effect also required certain downstream targets, such as PTEN.
(§2) To further test whether the effect of wild type peptide on tumor cells is related to PTEN, a PTEN inhibitor (SF1670) was used (Li et al., Blood, 117:6702-6713). […] As a control for the specificity of SALL4, KBM5, a non-SALL4-expressing cell line was also treated with PTEN inhibitor.

KBM5 cells = experiment: MTS cell viability assay; type: cell-based; conditions: KBM5, wt peptide + PTEN inhibitor
Protocol: as §1, §2

SNU-387 cells = experiment: Cell viability assay (MTT/MTS); type: cell-based, human; conditions: SNU-387, wt peptide + PTEN inhibitor
Protocol: (§3) Cell viability was determined 72 hours after peptide treatments. Absorbance at 490 nm is directly correlated to cell viability. Wild type functional SALL4 peptide (wt), mutant non-functional SALL4 peptide (Mut.), trichostatin A (TSA), scrambled control peptide (Scr.), wild type peptide+PTEN inhibitor SF1670 (wt+Inh.) were given to the cells at the indicated concentration. PTEN inhibitor concentration was 400 nM. (31C, 31D) Western blot analyses of the effects of peptides on PTEN, AKT, and pAKT expression on SNU-398 (31C) and SNU-387 (31D) cells 72 hours following peptide treatments. 20 μM of wt or Scr. peptide or 100 nM of TSA was used. PTEN inhibitor concentration was 400 nM. (31E) Representative images show NOD/SCID mice transplanted with Scr peptide- and wt peptide-treated SNU-398 cells (left) and the dissected subcutaneous tumors (right). Arrow indicates subcutaneous tumor. (31F) Growth curve of subcutaneous tumors (left panel) and tumor weight of tumors dissected at day 26 post-transplantation (right panel). Results are mean±s.d. n=5; * P<0.05. (31G) Representative images show NOD/SCID mice transplanted with 3 million SNU-398 cells at the left flank and treated intraperitoneally for five consecutive days with 56 mg/kg body weight TAT-Mut. peptide or 60 mg/kg body weight wt peptide (top panel) and the dissected subcutaneous tumors (bottom). (31H) Tumor weight of tumors dissected at day 18 post-transplantation and post-treatment of mice treated intraperitoneally with TAT fusion peptides as described in 5 g. Results are mean±s.d. n=5; * P<0.05.
(§4) Cell viability assay (MTT) (Invitrogen) was performed according to the manufacturer's instructions. Briefly—10000 cells were seeded in 100 ul medium in 96 well plates. The next day cells were treated as indicated on the figures. At the designated time after the treatment 20 ul of 5 mg/ml MTT solution was added to each well. After 3.5 h incubation at 37 C the medium was removed and the reaction was terminated with a solution of 4 mM HCl, 0.1% Nondet P-40 (NP40) all in isopropanol in dark on orbital shaker for […]. at room temperature. The absorbance was read at 590 nm with a reference filter of 620 nm in Spectromax M3 (ABI) spectrophotometer.
7000 cells were seeded in each wells of a microtiter plate in 100 μL of complete medium. Cells from each treatment were seeded in duplicate. Controls using the same medium without cells were set up in parallel. At various time points, 317 μg/mL of 3-(4,5-dimethylthiazol-2-yl)-5-(3-carboxymethoxyphenyl)-2-(4-sulfophenyl)-2H-tetrazolium (CellTiter96® AQueous One Solution Cell Proliferation Assay, Promega) was added to each well. After four hours incubation of the tetrazolium salt, absorbance at 490 nm was read by a microplate reader.

SNU-398 cells = experiment: Cell viability assay (MTT/MTS); type: cell-based, human; conditions: for cell viability on co-treatment with wt peptide (rescue): SNU-398, wt peptide + PTEN inhibitor
Protocol: as §3, §4, §1
7000 cells were seeded in each wells of a microtiter plate in 100 μL of complete medium. Cells from each treatment were seeded in duplicate. Controls using the same medium without cells were set up in parallel. […]

HDAC complex = target: T1, HDAC complex (Homo sapiens, UniProt Q09028); experiment: Fluorescent polarization competitive binding in SNU-398 nuclear extracts; conditions: Example 6
T1 construct: endogenous in cells; host or cells: SNU-398 nuclear extract
T1 sequence (Q09028 whole entry, one chain of several): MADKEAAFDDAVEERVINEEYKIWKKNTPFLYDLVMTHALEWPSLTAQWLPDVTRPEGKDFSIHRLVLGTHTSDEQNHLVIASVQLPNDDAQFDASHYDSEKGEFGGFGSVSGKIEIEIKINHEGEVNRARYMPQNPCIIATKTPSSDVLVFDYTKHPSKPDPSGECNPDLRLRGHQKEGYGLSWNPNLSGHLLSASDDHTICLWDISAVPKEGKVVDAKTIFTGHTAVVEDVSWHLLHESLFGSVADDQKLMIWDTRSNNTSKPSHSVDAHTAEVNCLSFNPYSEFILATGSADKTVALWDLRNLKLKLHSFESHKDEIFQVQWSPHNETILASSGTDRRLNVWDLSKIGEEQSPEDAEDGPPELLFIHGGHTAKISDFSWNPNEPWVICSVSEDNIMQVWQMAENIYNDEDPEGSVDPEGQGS
Protocol: Below are the amino acid sequences of the peptides used in this study. In the mutant peptide (mut), Lys 5 is replaced with an alanine residue. […] In the first lane marked “Input”, 10% of the extracts were subjected to western blot analysis without immunoprecipitation. […] Extracts were subsequently immunoprecipitated with anti-FITC antibody and the complexes pulled down were subjected to an HDAC activity assay as described in the methods. TSA was added at a concentration of 100 nM. Input is the sample in which 10% of the extract was assayed for HDAC activity without the immunoprecipitation step. […] Competitive binding of nonlabeled wild type or scrambled peptides was measured by fluorescent polarization. […] The fluorescent polarization (y axis) is decreased if the FITC-labeled peptide is displaced from a larger complex.
Next tested was the binding affinity of the wild type and scrambled peptides to the HDAC complex. For this, Fluorescent Polarization (FP), a technology based on molecular movement and rotation in which fluorescent molecules are excited with polarized light, was used. If the fluorescent molecules are part of a large complex, they rotate less and the emitted light has high polarity. In contrast, smaller molecules rotate faster and have low polarity (“depolarized”). […] Using this approach, FITC-labeled wild type or scrambled peptides were first mixed with nuclear extracts from SNU-398 cells. Serial dilutions of unlabeled wild type or scrambled peptides were then added as competitors respectively, and measured by FP assay.

| Compound | effect of wt peptide on pAKT on co-treatment with PTEN inhibitor (PTEN/AKT pathway; listed as PTEN inhibitor) | effect of wt peptide on pAKT on co-treatment with PTEN inhibitor (PTEN/AKT pathway; listed as Pten inhibitor) | cell viability on co-treatment with wt peptide (rescue) (THP1 cells) | cell viability on co-treatment with wt peptide (KBM5 cells) | cell viability on co-treatment with wt peptide (SNU-387 cells) | cell viability on co-treatment with wt peptide (rescue) (SNU-398 cells) | cell viability on co-treatment with wt peptide (rescue) (SNU-398 cells; listed as PTEN inhibitor) | cell viability on co-treatment with wt peptide (rescue) (SNU-398 cells; listed as SF-1670) | binding affinity by FP (HDAC complex) | cell viability / number of viable cells (SNU-398 cells; SNU-398 (high SALL4), 72 h) |
| --- | --- | --- | --- | --- | --- | --- | --- | --- | --- | --- |
| CC(C)(C)C(=O)Nc1ccc2c(c1)C(=O)C(=O)c1ccccc1-2 [SF1670, reference compound] | can be rescued | abrogated | restored the cell viability to the baseline levels | showed no effect as well | showed no effect as well | able to rescue the phenotype | able to rescue the phenotypes | restored the cell viability to a baseline level | – | – |
| NH2-YGRKKRRQRRR-MSAAAQAKPHI-COOH (H-YGRKKRRQRRRMSAAAQAKPHI-OH) [TAT-Mut, reference compound] | – | – | – | – | – | – | – | – | minimal binding | did not exhibit such cell killing effect |
